Source: patent US9345904B2, “Photodynamic therapy using photosensitizing agent or 5-aminolevulinic acid” (SBI Pharmaceuticals Co., Ltd., priority 2011, dated 2016)

Experiments:
[1] = tested on: HeLa cells; assay: Cancer therapeutic effect of ALA-PDT by wavelength, hematoxylin-eosin staining of subcutaneous HeLa tumors; format: in vivo, SCID mice; conditions: for tumor tissue histology (effect of ALA-PDT): 750 mg/kg b.w. ALA tail vein, 100 J/cm^2, after 4 hours, tissue taken following day
Procedure: 5×10^5 HeLa cells were subcutaneously injected into SCID mice of the mouse numbers 1 to 3. […] After maintaining the mice until the size of tumors reaches that described in Table 1, 750 mg/kg b.w. of ALA was injected into the tail vein of the mice of numbers 1 and 2. After 4 hours, the mouse of number 1 was irradiated with LED light having a peak at a wavelength of 517 nm and the mouse of number 2 was irradiated with LED light having a peak at a wavelength of 629 nm. The SCID mice irradiated with light listed above were each anesthetized on the following day; a portion containing HeLa cells was cut out, fixed in formaldehyde, subjected to dehydration treatment with ethanol and xylene, and then embedded in paraffin; and a small piece thinly sliced into a thickness of 5 μm was stained with hematoxylin-eosin to observe the tissue under a light microscope.

[2] = tested on: MKN45 cells; assay: Cell-killing effect of ALA-PDT by wavelength, MTT assay survival rate; format: cell-based
Procedure: MKN45 cells (purchased from Riken Cell Bank) cultured in a 35-mm dish were cultured for 4 hours in the presence of 0.168 mg/mL ALA. Then, 5 mL of a hemoglobin solution was dispensed into a 60-mm dish, placed on the 35-mm dish in which the culture was performed in the presence of ALA, and irradiated with light. Light shielding by hemoglobin was provided to imitate the inside of a living body because hemoglobin is considered to be a leading cause of the inhibition of light invasion in photodynamic therapy. The culture was irradiated to 4.5 J/cm^2 (5 mW/cm^2, 15 min.) with light having a peak at 402 nm, 502 nm, 517 nm, 529 nm, or 636 nm. […]
The survival rate of cells after light irradiation was measured using an MTT assay method. […] Thereafter, 200 μL thereof was dispensed into a 96-well plate and measured for absorbance at 570 nm using a plate reader (from Bio-Rad). The survival rate was measured from the absorbance of each sample and expressed relative to the absorbance after a medium without cultured cells were subjected to these procedures, set to 0%, and the absorbance after such cells cultured as control were subjected to these procedures, set to 100%. Optical power density with light shielding by hemoglobin was measured using Power Meter (from Scientex, Inc.); the results are shown in FIG. 3.

## NCC(=O)CCC(=O)O [ALA, 5-aminolevulinic acid]
[1]; mouse number 1 (517 nm) versus mouse number 2 (629 nm), tumors about 4 mm in height
  effect of ALA-PDT at 517 nm compared with 629 nm (cell density, amount of blebs): the effect of ALA-PDT was higher
[1]; mouse number 1, LED 517 nm
  tumor tissue histology (effect of ALA-PDT): the condensation of the cytoplasm, the disappearance of the nucleus, and clearance between cells due to the generation of blebs were observed
[1]; mouse number 2, LED 629 nm
  tumor tissue histology (effect of ALA-PDT): the condensation of the cytoplasm, the disappearance of the nucleus, and clearance between cells due to the generation of blebs were observed
[2]; with light shielding by hemoglobin, lower optical power densities at 502-529 nm
  cell-killing effect of lights at 502 nm, 517 nm and 529 nm relative to light at 636 nm: comparable cell-killing effects compared to light at 636 nm
[2]; without light shielding by hemoglobin, 0.168 mg/mL ALA 4 hours, 4.5 J/cm^2, lights with peak at 402, 502, 517, 529 or 636 nm compared
  cell-killing effect of ALA-PDT: stronger in the order of lights having a peak at 402 nm, 502 nm, 517 nm, 529 nm, or 636 nm
